Measured values reported in the NIST ThermoML archive (doi:10.1021/je050060q).

Conditions: Liquid; for mass density: Pycnometric method

CCCCCCCCCCCCCCCC [hexadecane]
Conditions | mass density [kg/m3] | speed of sound [m/s]
293.15 K | 773.38 | 1357
298.15 K | 769.97 | 1338
303.15 K | 766.55 | –
308.15 K | 763.12 | 1301
313.15 K | 759.68 | 1283
318.15 K | 756.24 | 1265
323.15 K | 752.79 | 1246
328.15 K | 749.33 | 1228
333.15 K | 745.86 | 1211
338.15 K | 742.39 | 1193
343.15 K | 738.91 | 1176
348.15 K | 735.42 | 1158
353.15 K | 731.93 | 1141
358.15 K | 728.43 | 1124
363.15 K | 724.92 | 1107
368.15 K | 721.4 | 1090
373.15 K | 717.88 | 1074

CCCCCC [hexane]
Conditions | mass density [kg/m3] | speed of sound [m/s]
293.15 K | 659.44 | 1098
298.15 K | 654.93 | 1076
303.15 K | 650.36 | 1054
308.15 K | 645.74 | 1032
313.15 K | 641.08 | 1010
318.15 K | 636.37 | 988
323.15 K | 631.61 | 966
328.15 K | 626.81 | 944
333.15 K | 621.95 | 921
338.15 K | – | 900
343.15 K | – | 878
348.15 K | – | 856
353.15 K | – | 834
358.15 K | – | 812
363.15 K | – | 790
368.15 K | – | 768
373.15 K | – | 747
